The EC50 is the concentration giving half of the maximal effect. As a reminder, the IC50 is the concentration at which inhibition is half-maximal.

Molecules are shown by their SMILES. The source made the active and inactive calls. The calls are words filed in the database; no cut-off is given here.

In data set [1] the test system is DNA. Description: Binding affinity to dsDNA (unknown origin) assessed as DNA intercalation by measuring change in fluorescence intensity by fluorescence-based screening assay. The data set is classed as nucleic-acid assay.
Data set [2] addresses DNA. Description: Binding affinity to dsDNA (unknown origin) by fluorescence-based screening assay. Type of data set: nucleic-acid assay.
For data set [3], the system named is MALAT1 triple helix RNA. In words: Binding affinity to MALAT1 triple helix RNA (unknown origin) assessed as RNA intercalation by measuring change in fluorescence intensity by fluorescence-based screening assay. Type of data set: nucleic-acid assay.
In data set [4] the target is MALAT1 triple helix RNA. In words: Binding affinity to MALAT1 triple helix RNA (unknown origin) by fluorescence-based screening assay. The data set is classed as nucleic-acid assay.
Data set [5] has as its system MALAT1 triple helix RNA. Description: Binding affinity to MALAT1 triple helix RNA (unknown origin) assessed as […] by measuring conformational change at 2.5 to 5.0 uM at 25 to 65 degreeC by temperature dependent CD analysis. The data set is classed as nucleic-acid assay. As to conditions: dose 2.5-5 µM.
The test system of the next data set is SK-OV-3. In words: Cytotoxicity against human SK-OV-3 cells. The data set is classed as functional, cell-based.
A further data set has as its system L929. Description: Cytotoxicity against mouse L929 cells. Type of data set: toxicity, cell-based.
In another data set the test system is HeLa. In words: Cytotoxicity against human HeLa cells. Type of data set: functional, cell-based.
The next data set relates to MCF7. In words: Cytotoxicity against human MCF7 cells assessed as cell viability incubated for 48 hrs. Type of data set: functional, cell-based. As to conditions: MCF7, 48 h.

Consider `O=c1c2ccccc2n2c(=O)c3ccccc3nc2n1Cc1cccc2ccccc12`, for which the deltaFI with DNA [1] was 0.014.

For `O=c1c2ccccc2n2c(=O)c3ccccc3nc2n1-c1ccc(C(F)(F)F)cc1`, in the data set on DNA [1], the deltaFI came to 0.084.

Take `O=c1c2ccccc2n2c(=O)c3ccccc3nc2n1Cc1ccc(OC(F)(F)F)cc1`: the deltaFI with DNA [1] came out at 0.29.

For the molecule `COC(=O)c1ccc(Cn2c(=O)c3ccccc3n3c(=O)c4ccccc4nc23)cc1`, the deltaFI in the data set on DNA [1] stood at 0.426.

Consider `O=c1c2ccccc2n2c(=O)c3ccccc3nc2n1Cc1cccc(C(F)(F)F)c1`, for which the figures for the deltaFI in the data set with DNA [1] and in the data set on MALAT1 triple helix RNA [3] were 0.76 and 0.504, respectively. Further, the EC50 on DNA [2] came out at 1000 nM; at MALAT1 triple helix RNA [4] it was 800 nM.

As to `N#Cc1ccc(Cn2c(=O)c3ccccc3n3c(=O)c4ccccc4nc23)cc1`, in the data set on DNA [1], the deltaFI was determined as 0.172.

As for `O=c1c2ccccc2n2c(=O)c3ccccc3nc2n1CCCn1c(=O)c2ccccc2n2c(=O)c3ccccc3nc12`, the outcome with MALAT1 triple helix RNA [5] was Active. For the same molecule, the deltaFI with DNA [1] and with MALAT1 triple helix RNA [3] was 1 in each case. Besides, the EC50 on DNA [2] turned out to be 1400 nM; at MALAT1 triple helix RNA [4], 1100 nM. Further, the 50% inhibitory concentration (IC50) with SK-OV-3 was found to be 8000 nM; in the data set on HeLa, 63200 nM. In addition, the Activity entry with L929 is listed as “Non-toxic”.

In the case of `O=c1c2ccccc2n2c(=O)c3ccccc3nc2n1Cc1ccc([N+](=O)[O-])cc1`, the deltaFI with DNA [1] worked out at 0.079.

On to `N=C(N)c1ccc(-c2ccc(-c3ccc(C(=N)N)cc3)o2)cc1` [FURAMIDINE], for which the IC50 in the data set on MCF7 worked out at 90000 nM. Moreover, the response at MALAT1 triple helix RNA [4] was half-maximal at 600 nM (EC50).

In turn, `COc1cccc2c1C(=O)c1c(O)c3c(c(O)c1C2=O)C[C@@](O)(C(=O)CO)C[C@@H]3O[C@H]1C[C@H](N)[C@H](O)[C@H](C)O1` [DOXORUBICIN] gave an IC50 in the data set with SK-OV-3 of 534 nM.

Source of the values: ChEMBL document CHEMBL6134773, “Metal-free synthesis of N-fused quinazolino-quinazoline-diones as a MALAT1 RNA triple helix intercalator” (RSC Med Chem, 2025).
